Square brackets hold non-standard residues; d marks the D form. Side chains are listed from the residue outwards. Peptide text beside a SMILES is read from it. * marks the point of attachment. X1 = NCCCCC(N)CN1CCC[C@H]1C(=O)*; Ahx = NCCCCCC(=O)O
Tests used:
[1] = Half-life in human serum; assay type: in vitro ADME; conditions: human serum at 37° C.
Source text: (§1) The term “standard peptide bond” means an amide bond of formula (—CONH—) which is normally present between 2 amino acids in a natural protein. Such a bond is sensitive to the action of proteases. The term “modified peptide bonds ψ” means a chemical bond between 2 amino acids of chemical formula distinct from the standard peptide bond of formula (—CONH—). […] The term “protease”, also known as “peptidase” or “proteolytic enzyme”, means any enzyme which cleaves the standard peptide bonds in proteins. This process is known as proteolytic cleavage. This involves the use of a water molecule which is what leads to proteases being classified as hydrolases. The proteases namely include proteases known as N-peptidases which carry out the cleavage of the N-terminal end of proteins. These proteases are particularly inconvenient in terms of the in vivo stability of peptides without modified peptide bonds.

[2] = Half-life in foetal calf serum; assay type: in vitro ADME; conditions: bovine; foetal calf serum at 37° C.
Source text: as §1

For `N=C(N)NCCC[C@H](NC(=O)[C@@H]1CCCN1CC(N)CCCCN)C(=O)NCCCC[C@H](NC(=O)[C@H](CCCCN)NC(=O)[C@H](CCCCNC(=O)[C@H](CCCNC(=N)N)NC(=O)[C@@H]1CCCN1CC(N)CCCCN)NC(=O)[C@H](CCCNC(=N)N)NC(=O)[C@@H]1CCCN1CC(N)CCCCN)C(=O)NCC(=O)N1CCC[C@H]1C(=O)N[C@@H](CCCCNC(=O)[C@H](CCCNC(=N)N)NC(=O)[C@@H]1CCCN1CC(N)CCCCN)C(=O)N[C@@H](CCC(=O)O)C(=O)N[C@@H](CCCCNC(=O)[C@H](CCCNC(=N)N)NC(=O)[C@@H]1CCCN1CC(N)CCCCN)C(=O)NCCCCCC(N)=O` (some centres unmarked) [HB19, 5[Kψ(CH2N)PR]-TASP] (X1-RK([Arg-X1])KK([Arg-X1])GPK([Arg-X1])EK([Arg-X1])[Ahx]-NH2), the half-life [1] was over 24 h and the half-life [2] was over 24 h.

— patent US20150018268A1, “MULTIVALENT SYNTHETIC COMPOUNDS AS ANTIBIOTIC TREATMENT” (CENTRE NATIONAL DE LA RECHERCHE SCIENTIFIQUE (CNRS), priority 2010, published 2015)
